The NIST ThermoML archive (doi:10.1021/je900093h)

Test: molar heat capacity at saturation pressure
Details: Crystal, Vacuum adiabatic calorimetry

CCCCCCCCCC(=O)OCC [ethyl decanoate]
Details | molar heat capacity [J/K/mol]
5.07 K | 0.5226
5.31 K | 0.6118
5.56 K | 0.7121
5.81 K | 0.825
6.07 K | 0.9558
6.36 K | 1.118
6.69 K | 1.318
7.02 K | 1.545
7.35 K | 1.796
7.7 K | 2.073
8.04 K | 2.376
8.4 K | 2.709
8.76 K | 3.071
9.12 K | 3.453
9.48 K | 3.859
9.85 K | 4.299
10.32 K | 4.888
10.9 K | 5.635
11.48 K | 6.424
12.07 K | 7.27
12.66 K | 8.157
13.26 K | 9.088
13.87 K | 10.03
14.47 K | 11.01
15.09 K | 12.05
15.81 K | 13.35
16.64 K | 14.88
17.48 K | 16.38
18.32 K | 17.92
19.16 K | 19.47
20.01 K | 21.05
21.18 K | 23.32
22.7 K | 26.32
24.23 K | 29.4
25.75 K | 32.51
27.29 K | 35.64
28.39 K | 37.87
29.64 K | 40.42
31.35 K | 43.96
33.22 K | 47.77
35.1 K | 51.55
36.98 K | 55.32
38.87 K | 59.03
40.75 K | 62.74
42.73 K | 66.71
44.82 K | 70.83
46.9 K | 74.94
49 K | 78.99
51.09 K | 82.94
53.19 K | 86.89
55.3 K | 90.74
57.4 K | 94.51
59.52 K | 98.2
61.64 K | 101.8
63.76 K | 105.3
65.89 K | 108.8
68.01 K | 112.1
70.14 K | 115.4
72.38 K | 118.9
74.72 K | 122.4
77.07 K | 125.9
79.44 K | 129.4
80.12 K | 130.3
81.8 K | 132.9
81.98 K | 133
83.85 K | 135.7
84.15 K | 136.2
85.73 K | 138.3
87.62 K | 141
89.51 K | 143.6
91.41 K | 146.2
93.31 K | 148.8
95.22 K | 151.3
97.14 K | 153.8
99.06 K | 156.2
100.98 K | 158.7
102.91 K | 161
104.84 K | 163.3
106.77 K | 165.7
108.71 K | 167.9
110.66 K | 170
112.6 K | 172.2
114.55 K | 174.3
116.5 K | 176.4
118.46 K | 178.5
120.41 K | 180.4
122.37 K | 182.4
124.33 K | 184.3
126.29 K | 186.2
128.26 K | 188
130.23 K | 189.8
130.37 K | 189.7
132.19 K | 191.6
132.31 K | 191.5
134.17 K | 193.3
134.25 K | 193.3
136.14 K | 195.1
136.19 K | 195
138.12 K | 196.8
138.13 K | 196.6
140.08 K | 198.3
140.1 K | 198.4
142.02 K | 200
142.07 K | 200.1
143.97 K | 201.6
144.06 K | 201.8
145.92 K | 203.3
146.04 K | 203.6
147.87 K | 205
148.02 K | 205.3
149.82 K | 206.5
150 K | 206.9
151.77 K | 208.2
151.98 K | 208.5
153.72 K | 209.7
153.97 K | 210
155.68 K | 211.2
155.95 K | 211.5
157.63 K | 212.8
157.93 K | 213.2
159.59 K | 214.4
159.92 K | 214.8
161.55 K | 215.9
161.91 K | 216.3
163.5 K | 217.4
163.89 K | 217.8
165.46 K | 218.9
165.88 K | 219.2
167.42 K | 220.4
167.86 K | 220.8
169.38 K | 222
169.85 K | 222.3
171.34 K | 223.6
171.83 K | 223.9
173.3 K | 225.1
173.81 K | 225.6
175.26 K | 226.6
175.79 K | 227.1
177.23 K | 228.3
177.77 K | 228.7
179.19 K | 229.8
179.74 K | 230.3
180.73 K | 230.9
181.15 K | 231.3
181.61 K | 231.8
181.72 K | 232
182.71 K | 232.5
183.11 K | 233.1
183.59 K | 233.4
183.69 K | 233.6
184.69 K | 234.2
185.07 K | 234.7
185.57 K | 235.1
185.67 K | 235.2
186.66 K | 235.8
187.04 K | 236.4
187.54 K | 236.7
187.64 K | 236.8
188.63 K | 237.5
189 K | 238
189.52 K | 238.4
189.6 K | 238.5
190.6 K | 239.3
190.96 K | 239.7
191.49 K | 240
191.57 K | 240.2
191.61 K | 240.1
192.56 K | 240.9
192.93 K | 241.4
193.45 K | 241.6
193.53 K | 241.9
193.58 K | 241.8
194.53 K | 242.6
194.89 K | 243.1
195.42 K | 243.3
195.48 K | 243.5
195.54 K | 243.5
196.49 K | 244.4
196.85 K | 244.7
197.38 K | 245
197.44 K | 245.2
197.5 K | 245.2
198.44 K | 246.2
198.81 K | 246.5
199.33 K | 246.7
199.39 K | 247
199.46 K | 246.8
200.4 K | 247.8
200.77 K | 248.3
201.28 K | 248.3
201.35 K | 248.7
201.46 K | 248.6
202.35 K | 249.5
202.74 K | 249.9
203.24 K | 250.1
203.29 K | 250.4
203.52 K | 250.4
204.3 K | 251.3
